# Test results taken from the NIST ThermoML archive (doi:10.1016/j.fluid.2009.02.007).
# Numbers after ± are expanded uncertainties.
# Experiment: osmotic coefficient (dimensionless); mn = molality of the nth substance listed, in mol/kg
# Conditions: 101 kPa, Liquid, Vapor pressure osmometry
structure (smiles),measurement,setting,value
CCOS(=O)(=O)[O-].CCn1cc[n+](C)c1 [1-ethyl-3-methylimidazolium ethyl sulfate] + O,osmotic coefficient,"298.15 K, m1 = 0.0086",0.973 ± 0.001
same,osmotic coefficient,"298.15 K, m1 = 0.0185",0.957 ± 0.002
same,osmotic coefficient,"298.15 K, m1 = 0.0284",0.937 ± 0.003
same,osmotic coefficient,"298.15 K, m1 = 0.0376",0.921 ± 0.004
same,osmotic coefficient,"298.15 K, m1 = 0.057",0.871 ± 0.006
same,osmotic coefficient,"298.15 K, m1 = 0.0749",0.852 ± 0.007
same,osmotic coefficient,"298.15 K, m1 = 0.0938",0.83 ± 0.009
same,osmotic coefficient,"298.15 K, m1 = 0.1269",0.815 ± 0.009
same,osmotic coefficient,"298.15 K, m1 = 0.1704",0.782 ± 0.011
same,osmotic coefficient,"298.15 K, m1 = 0.2087",0.774 ± 0.011
same,osmotic coefficient,"298.15 K, m1 = 0.2648",0.754 ± 0.012
same,osmotic coefficient,"298.15 K, m1 = 0.3276",0.751 ± 0.012
same,osmotic coefficient,"298.15 K, m1 = 0.4235",0.736 ± 0.013
same,osmotic coefficient,"298.15 K, m1 = 0.5106",0.724 ± 0.014
same,osmotic coefficient,"298.15 K, m1 = 0.6979",0.712 ± 0.014
same,osmotic coefficient,"298.15 K, m1 = 0.8919",0.706 ± 0.015
same,osmotic coefficient,"298.15 K, m1 = 1.12",0.697 ± 0.015
same,osmotic coefficient,"298.15 K, m1 = 1.606",0.696 ± 0.015
same,osmotic coefficient,"298.15 K, m1 = 1.889",0.694 ± 0.015
same,osmotic coefficient,"298.15 K, m1 = 2.763",0.733 ± 0.013
same,osmotic coefficient,"308.15 K, m1 = 0.0086",0.981 ± 0.001
same,osmotic coefficient,"308.15 K, m1 = 0.0185",0.943 ± 0.003
same,osmotic coefficient,"308.15 K, m1 = 0.0284",0.921 ± 0.004
same,osmotic coefficient,"308.15 K, m1 = 0.0376",0.917 ± 0.004
same,osmotic coefficient,"308.15 K, m1 = 0.057",0.862 ± 0.007
same,osmotic coefficient,"308.15 K, m1 = 0.0749",0.862 ± 0.007
same,osmotic coefficient,"308.15 K, m1 = 0.0938",0.838 ± 0.008
same,osmotic coefficient,"308.15 K, m1 = 0.1269",0.817 ± 0.0092
same,osmotic coefficient,"308.15 K, m1 = 0.1704",0.797 ± 0.01
same,osmotic coefficient,"308.15 K, m1 = 0.2087",0.779 ± 0.011
same,osmotic coefficient,"308.15 K, m1 = 0.2648",0.764 ± 0.012
same,osmotic coefficient,"308.15 K, m1 = 0.3276",0.766 ± 0.012
same,osmotic coefficient,"308.15 K, m1 = 0.4235",0.755 ± 0.012
same,osmotic coefficient,"308.15 K, m1 = 0.5106",0.745 ± 0.013
same,osmotic coefficient,"308.15 K, m1 = 0.6979",0.727 ± 0.014
same,osmotic coefficient,"308.15 K, m1 = 0.8919",0.721 ± 0.014
same,osmotic coefficient,"308.15 K, m1 = 1.12",0.711 ± 0.014
same,osmotic coefficient,"308.15 K, m1 = 1.606",0.707 ± 0.015
same,osmotic coefficient,"308.15 K, m1 = 1.889",0.707 ± 0.015
same,osmotic coefficient,"308.15 K, m1 = 2.763",0.747 ± 0.013
same,osmotic coefficient,"318.15 K, m1 = 0.0086",1.019 ± 0.001
same,osmotic coefficient,"318.15 K, m1 = 0.0185",0.972 ± 0.002
same,osmotic coefficient,"318.15 K, m1 = 0.0284",0.934 ± 0.003
same,osmotic coefficient,"318.15 K, m1 = 0.0376",0.93 ± 0.01
same,osmotic coefficient,"318.15 K, m1 = 0.057",0.868 ± 0.007
same,osmotic coefficient,"318.15 K, m1 = 0.0749",0.859 ± 0.007
same,osmotic coefficient,"318.15 K, m1 = 0.0938",0.845 ± 0.008
same,osmotic coefficient,"318.15 K, m1 = 0.1269",0.831 ± 0.008
same,osmotic coefficient,"318.15 K, m1 = 0.1704",0.813 ± 0.009
same,osmotic coefficient,"318.15 K, m1 = 0.2087",0.797 ± 0.01
same,osmotic coefficient,"318.15 K, m1 = 0.2648",0.797 ± 0.01
same,osmotic coefficient,"318.15 K, m1 = 0.3276",0.793 ± 0.01
same,osmotic coefficient,"318.15 K, m1 = 0.4235",0.776 ± 0.011
same,osmotic coefficient,"318.15 K, m1 = 0.5106",0.772 ± 0.011
same,osmotic coefficient,"318.15 K, m1 = 0.6979",0.742 ± 0.013
same,osmotic coefficient,"318.15 K, m1 = 0.8919",0.73 ± 0.014
same,osmotic coefficient,"318.15 K, m1 = 1.12",0.717 ± 0.014
same,osmotic coefficient,"318.15 K, m1 = 1.606",0.715 ± 0.014
same,osmotic coefficient,"318.15 K, m1 = 1.889",0.717 ± 0.014
same,osmotic coefficient,"318.15 K, m1 = 2.763",0.759 ± 0.012
same,osmotic coefficient,"328.15 K, m1 = 0.0086",1.018 ± 0.001
same,osmotic coefficient,"328.15 K, m1 = 0.0185",0.975 ± 0.001
same,osmotic coefficient,"328.15 K, m1 = 0.0284",0.955 ± 0.002
same,osmotic coefficient,"328.15 K, m1 = 0.0376",0.936 ± 0.003
same,osmotic coefficient,"328.15 K, m1 = 0.057",0.886 ± 0.006
same,osmotic coefficient,"328.15 K, m1 = 0.0749",0.858 ± 0.007
same,osmotic coefficient,"328.15 K, m1 = 0.0938",0.85 ± 0.008
same,osmotic coefficient,"328.15 K, m1 = 0.1269",0.842 ± 0.008
same,osmotic coefficient,"328.15 K, m1 = 0.1704",0.815 ± 0.009
same,osmotic coefficient,"328.15 K, m1 = 0.2087",0.815 ± 0.009
same,osmotic coefficient,"328.15 K, m1 = 0.2648",0.8 ± 0.01
same,osmotic coefficient,"328.15 K, m1 = 0.3276",0.796 ± 0.01
same,osmotic coefficient,"328.15 K, m1 = 0.4235",0.787 ± 0.011
same,osmotic coefficient,"328.15 K, m1 = 0.5106",0.781 ± 0.011
same,osmotic coefficient,"328.15 K, m1 = 0.6979",0.755 ± 0.012
same,osmotic coefficient,"328.15 K, m1 = 0.8919",0.747 ± 0.013
same,osmotic coefficient,"328.15 K, m1 = 1.12",0.729 ± 0.014
same,osmotic coefficient,"328.15 K, m1 = 1.606",0.719 ± 0.014
same,osmotic coefficient,"328.15 K, m1 = 1.889",0.726 ± 0.014
same,osmotic coefficient,"328.15 K, m1 = 2.763",0.766 ± 0.012
